Assay type in all cases: cell-based
For one experiment, the system named is HCT116 cells. The experiment is described as follows: MTT assay, 72 h, HCT116. The note with it: Homo sapiens, HCT-116, mean ± SD. As for the experimental part: (§1) The cytotoxic potential of the synthesized compounds was investigated using the MTT assay after 72 h incubation with a panel of human and murine cancer cell lines, including colorectal carcinoma (HCT116), estrogen receptor-positive breast adenocarcinoma (MCF-7), triple-negative breast adenocarcinoma (MDA-MB-231), epidermoid carcinoma (KB3-1), myeloid leukemia (K562), and glioblastoma (U373), and mouse breast carcinoma (4T1) cells. To assess the selectivity of the compounds, pseudo-normal cell lines—human keratinocytes (HaCaTs) and mouse fibroblasts (NIH3T3s)—were also tested under the same conditions.
(§2) Human breast adenocarcinoma cells of MCF-7 and MDA-MB-231 lines, human glioblastoma cells of U373 line, human chronic myelogenous leukemia cells of K562 line, human colorectal carcinoma cells of HCT116 line, and human epidermoid carcinoma cells of KB3-1 line were kindly donated by a Collection of the Institute for Cancer Research at Vienna Medical University (Vienna, Austria). Human keratinocytes of HaCaT line, murine breast carcinoma cells of 4T1 line, and murine fibroblasts of the NIH3T3 line were obtained from the Cell Collection of the R.E. Kavetsky Institute of Experimental Pathology, Oncology and Radiobiology of the National Academy of Sciences of Ukraine (Kyiv, Ukraine). MCF-7, MDA-MB-231, U373, K562, HaCaT, and NIH3T3 cells were cultured in DMEM medium (Sigma-Aldrich, Burlington, MA, USA) supplemented with 2 mM L-glutamine, 4500 mg/L glucose, and 1 mM sodium pyruvate. HCT116 and KB3-1 cells were maintained in RPMI-1640 medium supplemented with 2 mM L-glutamine (Sigma-Aldrich, USA). Both media were supplemented with 10% fetal bovine serum (Sigma-Aldrich, USA). All cell lines were incubated at 37 °C in a humidified atmosphere containing 5% CO2.
(§3) The substrate cells were seeded at a density of 5000 cells per 100 µL, while suspension K562 cells were seeded at 15,000 cells per 100 µL in 96-well plates and incubated overnight. Doxorubicin (Dox, Sigma-Aldrich, USA) was used as a reference drug. Studied substances were then added in 100 µL of culture medium, and the cells were further incubated for 72 h. Subsequently, 20 µL of MTT solution (5 mg/mL, Sigma-Aldrich, USA) was added to each well and incubated for 2–4 h. Formazan crystals were then solubilized by adding dimethyl sulfoxide (Sigma-Aldrich, USA). Absorbance was measured using a BioTek ELx800 Absorbance Reader (BioTek Instruments, Inc., Winooski, VT, USA). The results were analyzed and illustrated using GraphPad Prism (version 8.0.1; GraphPad Software, San Diego, CA, USA) and presented as a mean (M) ± standard deviation (SD). The IC50 values of the compounds were determined using nonlinear regression analysis in GraphPad Prism 10.4.2 [40].

A further experiment deals with MCF-7 cells. Nature of the experiment: MTT assay, 72 h, MCF-7. The settings on record: Homo sapiens, MCF7, mean ± SD. The method, then:
as §1, §2
as §3, with “Doxorubicin (Dox, Sigma-Aldrich, USA) was used as a reference drug.” left out
(Tetrazolium dyes change colour on reduction, which living cells bring about.)

The test system of a further experiment is MDA-MB-231 cells. The experiment is described as follows: MTT assay, 72 h, MDA-MB-231. The note with it: Homo sapiens, mean ± SD. As for the experimental part: as §1, §2, §3
The next experiment relates to 4T1 cells. The experiment is described as follows: MTT assay, 72 h, 4T1. The note with it: Mus musculus, mean ± SD. As for the experimental part: as §1, §2, §3
A further experiment relates to KB3-1 cells. Nature of the experiment: MTT assay, 72 h, KB3-1. The settings on record: Homo sapiens, KB 3-1, mean ± SD. The method, then: as §1, §2, §3
The next experiment deals with K562 cells. Nature of the experiment: MTT assay, 72 h, K562. The note with it: Homo sapiens, mean ± SD. As for the experimental part: as §1, §2, §3
The subject of another experiment is U373 cells. The experiment is described as follows: MTT assay, 72 h, U373. The settings on record: Homo sapiens, U373 MG, mean ± SD. As for the experimental part: as §1, §2, §3
The subject of a further experiment is HaCaT cells. Nature of the experiment: MTT assay, 72 h, HaCaT (pseudo-normal). The note with it: Homo sapiens, mean ± SD. As for the experimental part: as §1, §2, §3
A further experiment concerns NIH3T3 cells. The experiment is described as follows: MTT assay, 72 h, NIH3T3 (pseudo-normal). The note with it: Mus musculus, mean ± SD. The method, then:
as §1, §2, §3

The structures appear in SMILES notation. A value given as a limit tells only on which side of the number the result lay.

As for `COc1ccc(N2C(=O)CSC23C(=O)Nc2ccc(Cl)cc23)cc1` (centres unmarked) [Compound 1, 5-Chloro-3′-(4-methoxyphenyl)spiro[indoline-3,2′-thiazolidine]-2,4′-dione], the IC50 is more than 100 µM with HCT116 cells; more than 100 µM in the experiment on MCF-7 cells; 85.3 ± 1.15 µM in the experiment with MDA-MB-231 cells; 89.4 ± 1.93 µM in the experiment on 4T1 cells; 62.3 ± 0.51 µM in the experiment on KB3-1 cells; 71.8 ± 7.79 µM in the experiment with K562 cells. Besides, the IC50 in the experiment on U373 cells came out at 76.7 ± 0.54 µM; with HaCaT cells, 96.7 ± 1.02 µM; in the experiment on NIH3T3 cells it was 77.6 ± 1.82 µM.

For the molecule `O=C1CSC2(C(=O)Nc3ccc(Cl)cc32)N1c1ccc(Cl)cc1` (centres unmarked) [Compound 2, 5-Chloro-3′-(4-chlorophenyl)spiro[indoline-3,2′-thiazolidine]-2,4′-dione], the IC50 was more than 100 µM in the experiment with HCT116 cells; 84.9 ± 6.51 µM in the experiment on MCF-7 cells; 62.69 ± 0.22 µM with MDA-MB-231 cells; 73 ± 7.02 µM in the experiment on 4T1 cells; 51.77 ± 0.26 µM with KB3-1 cells; 9.96 ± 1.17 µM with K562 cells. The IC50 with U373 cells is 77.91 ± 0.56 µM; with HaCaT cells, 82.8 ± 1.94 µM; in the experiment on NIH3T3 cells, 98.25 ± 0.64 µM.

Regarding `O=C1CSC2(C(=O)Nc3ccc(Br)cc32)N1c1ccc(Br)cc1` (centres unmarked) [Compound 3, 5-Bromo-3′-(4-bromophenyl)spiro[indoline-3,2′-thiazolidine]-2,4′-dione], the IC50 in the experiment with HCT116 cells came to 88.9 ± 6.33 µM; in the experiment on MCF-7 cells, 64 ± 4.77 µM; in the experiment on MDA-MB-231 cells it was 56.5 ± 1.93 µM; with 4T1 cells, 43.8 ± 1.76 µM; in the experiment with KB3-1 cells, 46.7 ± 0.54 µM; in the experiment on K562 cells, 7.99 ± 0.12 µM. Besides, the IC50 in the experiment with U373 cells amounted to 49.4 ± 1.33 µM; in the experiment on HaCaT cells it was 38.4 ± 0.77 µM; in the experiment on NIH3T3 cells, 82.9 ± 2.05 µM.

Turning to `O=C1CSC2(C(=O)Nc3ccc(F)cc32)N1Cc1ccccc1` (centres unmarked) [Compound 4, 3′-Benzyl-5-fluorospiro[indoline-3,2′-thiazolidine]-2,4′-dione], the 50% inhibitory concentration (IC50) with HCT116 cells is more than 100 µM; with MCF-7 cells, more than 100 µM; in the experiment on MDA-MB-231 cells it was 99.21 ± 0.41 µM; in the experiment with 4T1 cells, 91.8 ± 1.55 µM; with KB3-1 cells, 60.2 ± 0.72 µM; in the experiment on K562 cells it was 88.8 ± 4.06 µM. The IC50 was 98.6 ± 1.92 µM in the experiment on U373 cells, more than 100 µM in the experiment on HaCaT cells and more than 100 µM in the experiment on NIH3T3 cells.

Turning to `O=C1CSC2(C(=O)Nc3ccc(Cl)cc32)N1Cc1ccccc1` (centres unmarked) [Compound 5, 3′-Benzyl-5-chlorospiro[indoline-3,2′-thiazolidine]-2,4′-dione], the IC50 turned out to be 92.8 ± 1.09 µM in the experiment on HCT116 cells; 42.6 ± 1.24 µM with MCF-7 cells; 68.79 ± 0.62 µM with MDA-MB-231 cells; 95.3 ± 1.07 µM in the experiment with 4T1 cells; 52.1 ± 0.67 µM in the experiment with KB3-1 cells; 95.5 ± 2.64 µM in the experiment with K562 cells. Besides, the IC50 in the experiment on U373 cells is 76.2 ± 0.8 µM; in the experiment with HaCaT cells, more than 100 µM; with NIH3T3 cells, more than 100 µM.

In the case of `COc1ccc(N2C(=O)/C(=C/C=C/c3ccccc3)SC23C(=O)Nc2ccc(Cl)cc23)cc1` (centres unmarked) [Compound 6, (Z)-5-Chloro-3′-(4-methoxyphenyl)-5′-((E)-3-phenylallylidene)spiro[indoline-3,2′-thiazolidine]-2,4′-dione], the IC50 was more than 100 µM with HCT116 cells; 83.3 ± 6.03 µM in the experiment with MCF-7 cells; 55.9 ± 5.67 µM with MDA-MB-231 cells; 68 ± 2.6 µM in the experiment on 4T1 cells; 45.23 ± 0.36 µM in the experiment on KB3-1 cells; more than 100 µM in the experiment with K562 cells. Also, the results for the IC50 in the experiment on U373 cells, with HaCaT cells and in the experiment with NIH3T3 cells were 69.5 ± 0.9 µM, 85.3 ± 1.27 µM and more than 100 µM, respectively.

As to `COc1ccc(N2C(=O)/C(=C/c3ccc(Cl)cc3)SC23C(=O)Nc2ccc(Cl)cc23)cc1` (centres unmarked) [Compound 7, (Z)-5-Chloro-5′-(4-chlorobenzylidene)-3′-(4-methoxyphenyl)spiro[indoline-3,2′-thiazolidine]-2,4′-dione], the IC50 in the experiment with HCT116 cells is more than 100 µM; in the experiment on MCF-7 cells it was 52.2 ± 2.15 µM; in the experiment with MDA-MB-231 cells, 8.55 ± 0.06 µM; in the experiment on 4T1 cells, 29 ± 0.92 µM; with KB3-1 cells, 17.2 ± 0.21 µM; with K562 cells it was 27.7 ± 3.02 µM. Moreover, the half-inhibitory concentration (IC50) with U373 cells amounted to 72.3 ± 0.8 µM; in the experiment on HaCaT cells, 8.63 ± 0.57 µM; in the experiment on NIH3T3 cells, 79.7 ± 0.93 µM.

As for `CCOc1ccc(/C=C2\SC3(C(=O)Nc4ccc(Cl)cc43)N(c3ccc(Cl)cc3)C2=O)cc1` (centres unmarked) [Compound 9, (Z)-5-Chloro-3′-(4-chlorophenyl)-5′-(4-ethoxybenzylidene)spiro[indoline-3,2′-thiazolidine]-2,4′-dione], the half-maximal inhibitory concentration (IC50) with HCT116 cells was more than 100 µM; in the experiment with MCF-7 cells, 74.5 ± 4.73 µM; in the experiment with MDA-MB-231 cells it was 7.89 ± 0.33 µM; in the experiment on 4T1 cells, 7.84 ± 0.49 µM; with KB3-1 cells it was 22.3 ± 1.17 µM; with K562 cells it was 67.1 ± 0.7 µM. Moreover, the IC50 with U373 cells was 98.22 ± 0.87 µM; in the experiment on HaCaT cells, more than 100 µM; with NIH3T3 cells, more than 100 µM.

`O=C1/C(=C/c2ccc(N3CCOCC3)cc2)SC2(C(=O)Nc3ccc(Cl)cc32)N1c1ccc(Cl)cc1` (centres unmarked) [Compound 10, (Z)-5-Chloro-3′-(4-chlorophenyl)-5′-(4-morpholinobenzylidene)spiro[indoline-3,2′-thiazolidine]-2,4′-dione]: the IC50 with HCT116 cells is more than 100 µM; in the experiment with MCF-7 cells it was more than 100 µM; in the experiment on MDA-MB-231 cells it was more than 100 µM; with 4T1 cells, more than 100 µM; with KB3-1 cells it was 16.9 ± 0.86 µM; in the experiment on K562 cells, more than 100 µM. Further, the IC50 with U373 cells, with HaCaT cells and with NIH3T3 cells was more than 100 µM throughout.

For the molecule `O=C1/C(=C/c2ccc(Cl)cc2)SC2(C(=O)Nc3ccc(Cl)cc32)N1c1ccc(Cl)cc1` (centres unmarked) [Compound 11, (Z)-5-Chloro-5′-(4-chlorobenzylidene)-3′-(4-chlorophenyl)spiro[indoline-3,2′-thiazolidine]-2,4′-dione], the IC50 in the experiment with HCT116 cells was more than 100 µM; with MCF-7 cells, 6 ± 0.28 µM; with MDA-MB-231 cells, 6.37 ± 0.11 µM; in the experiment on 4T1 cells, 5.66 ± 0.27 µM; in the experiment on KB3-1 cells, 6.95 ± 0.14 µM; in the experiment with K562 cells, 74.35 ± 0.66 µM. The IC50 in the experiment on U373 cells was 66.9 ± 0.83 µM; in the experiment with HaCaT cells, 8.67 ± 0.49 µM; in the experiment on NIH3T3 cells, more than 100 µM.

As for `COc1ccc(N2C(=O)/C(=C/c3ccc(-c4ccccn4)cc3)SC23C(=O)Nc2ccc(Cl)cc23)cc1` (centres unmarked) [Compound 12, (Z)-5-Chloro-3′-(4-methoxyphenyl)-5′-(4-(pyridin-2-yl)benzylidene)spiro[indoline-3,2′-thiazolidine]-2,4′-dione], the IC50 was more than 100 µM in the experiment on HCT116 cells; more than 100 µM in the experiment with MCF-7 cells; more than 100 µM in the experiment with MDA-MB-231 cells; more than 100 µM in the experiment on 4T1 cells; 0.97 ± 0.11 µM in the experiment on KB3-1 cells; more than 100 µM in the experiment with K562 cells. Further, the IC50 with U373 cells, in the experiment with HaCaT cells and in the experiment with NIH3T3 cells was more than 100 µM throughout.

`COc1cccc2c1C(=O)c1c(O)c3c(c(O)c1C2=O)C[C@@](O)(C(=O)CO)C[C@@H]3O[C@H]1C[C@H](N)[C@H](O)[C@H](C)O1` [Dox, Doxorubicin, reference compound]: the IC50 with HCT116 cells came to 0.9 ± 0.11 µM; in the experiment with MDA-MB-231 cells it was 0.6 ± 0.08 µM; with 4T1 cells, 0.73 ± 0.1 µM; with KB3-1 cells, 0.53 ± 0.08 µM; in the experiment with K562 cells, 0.95 ± 0.11 µM; in the experiment with U373 cells, 0.35 ± 0.09 µM. Also, the IC50 with HaCaT cells was 3.1 ± 0.18 µM; with NIH3T3 cells, 0.63 ± 0.12 µM.

Usually IC50 stands for the concentration that inhibits the measured activity by half. Low readings indicate higher potency, high ones lower potency.
